The nature of the data set: in vitro. The following applies: human, hela cells, % viability.

Structures are written as SMILES.

With `Clc1ccc(CN2CCC(Oc3cncc(OCCN4CCOCC4)n3)C2)cc1Cl` (stereo not shown) [CBK084477], the viability at 28.5 h, 10 µM worked out at 91.4%. The same measure, in the same setting: the value for `c1ncc(OC2CCN(CCN3CCOCC3)C2)nc1OCCN1CCOCC1` (stereo not shown) [CBK084492] was 97.6%; that for `OCCCN1CCC(Oc2cncc(OCCN3CCOCC3)n2)C1` (stereo not shown) [CBK084494] was 95.9%. `N#CCCCN1CCC(Oc2cncc(OCCN3CCOCC3)n2)C1` (stereo not shown) [CBK084495]: the viability at 28.5 h, 10 µM amounted to 103%. Same read-out and setting: the value for `c1ccc(CCN2CCC(Oc3cncc(OCCN4CCOCC4)n3)C2)cc1` (stereo not shown) [CBK084497] was 87.6%. As for `COc1ccc(-n2[nH]c(C)c(Cc3c(Cl)cccc3Cl)c2=O)cc1` [CBK084521], the viability at 28.5 h, 10 µM came out at 94.5%. With `CCC1CCCCN1C(=O)c1ccc(C)s1` (stereo not shown) [CBK084526], the viability at 28.5 h, 10 µM is 96.6%. The same measure, in the same setting: the value for `CCC1CCCCN1C(=O)c1ccc(OC)c(OC)c1` (stereo not shown) [CBK084527] was 117%; that for `CCC1CCCCN1C(=O)C1CCCCC1` (stereo not shown) [CBK084528] was 90%; that for `CC(C)(C)OC(=O)N1CCN(Cc2ccc(N)c3ccccc23)CC1` [CBK084530] was 109%. In the case of `CSc1ccc(-c2cnc(N)c(-c3ccc(C(=O)N4CCOCC4)cc3)n2)cc1` [CBK084539], the viability at 28.5 h, 10 µM worked out at 109%. `COc1ccc2[nH]c3c(c2c1)CCNC31CCN(CCSc2ccccc2)C1` (stereo not shown) [CBK084541T]: the viability at 28.5 h, 10 µM is 92%. Still for that read-out and setting: the value for `O=C(Nc1[nH]nc(O)c1Cc1c(Cl)cccc1Cl)C1CCCCC1` [CBK084558] was 92.9%; that for `O=C(CCN1CCCC12CCc1[nH]c3ccccc3c1C2)c1ccc(F)cc1` (stereo not shown) [CBK084593] was 92.6%; that for `c1ccc(OCCN2CCC3(C2)NCCc2[nH]ccc23)cc1` (stereo not shown) [CBK084595T] was 90.9%. Turning to `COC(=O)NCCc1c[nH]c2ccc(OC)cc12` [CBK084597], the viability at 28.5 h, 10 µM worked out at 98%. On the same count and under the same terms, the value for `CN1CCN(C(c2ccc(O)cc2)c2nnnn2Cc2ccccc2)CC1` (stereo not shown) [CBK084719] was 94.8%. The same measure, in the same setting: the value for `Cc1ccc(-c2nnn(CC(=O)N(CCO)C(C(=O)NC3CCCC3)c3ccc(F)cc3)n2)o1` (stereo not shown) [CBK084756] was 89.2%; that for `NC(=O)c1c(NC(=O)CSc2nnc(-c3ccccc3)n2CC2CCCO2)sc2c1CCC2` (stereo not shown) [CBK084789] was 110%; that for `O=C(Nc1ccccc1)NC1CC2CCC(C1)N2Cc1nnnn1Cc1ccco1` (stereo not shown) [CBK085071] was 107%. Still for that read-out and setting: the value for `CC(C)CC(NC(=O)c1ccccc1)C(=O)OCC(=O)Nc1nc2ccccc2s1` (stereo not shown) [CBK085134] was 92.5%; that for `Cc1ccc(C(=O)N(Cc2ccncc2)C2CCCCC2)cc1C` [CBK085386] was 97.9%. Take `CCSc1nnc(-c2cccc(C)c2)n1CC1CCCO1` (stereo not shown) [CBK085413]: the viability at 28.5 h, 10 µM turned out to be 93.1%. The same measure, in the same setting: the value for `CSc1nnc(-c2cccc(C)c2)n1CC1CCCCC1` [CBK085418] was 100%; that for `CCSc1nnc(-c2cccc(C)c2)n1CC1CCCCC1` [CBK085419] was 96.3%; that for `Cc1cccc(-c2nnc(SCC3CC3)n2CC2CCCCC2)c1` [CBK085423] was 87.7%. Still for that read-out and setting: the value for `Nc1ncc(Br)nc1N1CCC[C@@H]1CO` [CBK085450] was 105%; that for `COc1cc(N2CCCNCC2)ncn1` [CBK085485C] was 91.6%. Still for that read-out and setting: the value for `OC[C@H]1CCCN1c1nc(Br)cn2ccnc12` [CBK085496] was 101%. Consider `CCOC(=O)N1CCC2(CC1)Oc1ccc(-c3ccccc3)cc1O2` [CBK085500], for which the viability at 28.5 h, 10 µM (bulk resorufin, single well) worked out at 101%. For the molecule `O=C1N=C(NC2CCCCCC2)SC1C(=O)N1CCCCCC1` (stereo not shown) [CBK085513], the viability at 28.5 h, 10 µM amounted to 93.1%.

Take `CS(=O)(=O)Nc1ccc2cc(-c3ccsc3)cnc2n1` [CBK085665]: the viability at 28.5 h, 10 µM was determined as 102%. Still for that read-out and setting: the value for `COc1ccc(C(C)C)cc1-c1cnc2nc(NS(C)(=O)=O)ccc2c1` [CBK085672] was 102%; that for `CS(=O)(=O)Nc1ccc2cc(-c3ccc(Oc4ccccc4)cc3)cnc2n1` [CBK085674] was 98%.

Turning to `COc1cc(F)ccc1-c1nc2ncccc2cc1NS(C)(=O)=O` [CBK085692], the viability at 28.5 h, 10 µM was 89%. Still for that read-out and setting: the value for `CS(=O)(=O)Nc1cc2cccnc2c(-c2ccc3c(c2)CCO3)n1` [CBK085705] was 101%. On the same count and under the same terms, the value for `Nc1cc2ccccc2c(-c2ccsc2)n1` [CBK085710] was 85.3%. The same measure, in the same setting: the value for `CC(C)(C)c1ccc(-c2nc(N)cc3ccccc23)cc1` [CBK085720] was 109%; that for `Nc1cc2ccccc2c(-c2cccc(C(F)(F)F)c2)n1` [CBK085721] was 101%. For the molecule `Nc1cc2ccccc2c(-c2ccc3c(c2)OCCCO3)n1` [CBK085722], the viability at 28.5 h, 10 µM is 102%. As to `CS(=O)(=O)c1ccc(-c2nc(N)cc3ccccc23)cc1` [CBK085724], the viability at 28.5 h, 10 µM was determined as 96.1%. Still for that read-out and setting: the value for `COc1cc(-c2nc(N)cc3ccccc23)cc(OC)c1OC` [CBK085726] was 102%; that for `CCNC(=O)Nc1cc2ccccc2c(-c2ccc(F)cc2OC)n1` [CBK085731] was 62.9%.

With `COc1cc(-c2nc(NC(=O)C(C)C)cc3ccccc23)cc(OC)c1OC` [CBK085741], the viability at 28.5 h, 10 µM was determined as 106%. On the same count and under the same terms, the value for `CS(=O)(=O)Nc1cc2ccccc2c(-c2cccnc2)n1` [CBK085747] was 108%; that for `CC(C)C(=O)Nc1cc2ccccc2c(-c2cc(F)cc(F)c2)n1` [CBK085775] was 95.4%.

Consider `CC(C)C(=O)Nc1cc2ccccc2c(-c2ccc(N(C)C)cc2)n1` [CBK085776], for which the viability at 28.5 h, 10 µM amounted to 90.6%. On the same count and under the same terms, the value for `COc1ccc([C@@]23CC[C@@H](NC(=O)Nc4ccc(Cl)cc4Cl)C[C@@H]2CN(C)C3)cc1OC` [CBK085798T] was 88.5%. On the same count and under the same terms, the value for `Cc1ccc(C(=O)N[C@@H]2C[C@H](C)CC[C@H]2C(C)C)cc1C` [CBK085823] was 87.1%. The same measure, in the same setting: the value for `CC(=O)Nc1ccc(Sc2cnccn2)cc1` [CBK085838] was 89.7%. `Oc1ccccc1Sc1cnccn1` [CBK085840]: the viability at 28.5 h, 10 µM was determined as 104%.

On to `c1ccc2c(Sc3cnccn3)cccc2c1` [CBK085841], for which the viability at 28.5 h, 10 µM stood at 90.7%. In the case of `Nc1ccccc1Sc1ccccn1` [CBK085854], the viability at 28.5 h, 10 µM amounted to 103%. Still for that read-out and setting: the value for `c1ccc(Sc2cccc3ccccc23)nc1` [CBK085856] was 91.8%; that for `CCOC(=O)c1cnc(SCCc2ccccc2)nc1N` [CBK085871] was 88.1%. Still for that read-out and setting: the value for `Cc1nc(-c2ccc(S(=O)(=O)NCC3CC3)s2)cs1` [CBK085873] was 83.9%; that for `CC(C)(C)c1ccc(NC(=O)N2CCCN(Cc3ccccc3)CC2)cc1` [CBK085876] was 116%. The same measure, in the same setting: the value for `O=S(=O)(c1ccccc1)c1ccccc1C(F)(F)F` [CBK085887] was 104%; that for `Cc1ccc(S(=O)(=O)N(C)CCCC#N)cc1` [CBK085945] was 106%.

As for `NC(=O)C1CCN(C(=S)NC2CC3C=CC2C3)CC1` (stereo not shown) [CBK085970], the viability at 28.5 h, 10 µM stood at 97.4%. The same measure, in the same setting: the value for `CC(=O)c1nnn(-c2ccc(Cl)cc2Cl)c1C` [CBK085972] was 86.7%; that for `CC1CCCN(C(=S)NC2CC3CCC2C3)C1` (stereo not shown) [CBK085999] was 92.7%; that for `CC(C)c1ccc(NC(=O)CN2CCN(c3ccc(C(F)(F)F)cn3)CC2)cc1` [CBK086000] was 81.9%.

On to `CC(C)(C)OC(=O)N1CCC(CNS(=O)(=O)c2cccs2)CC1` [CBK086019], for which the viability at 28.5 h, 10 µM was found to be 100%. On the same count and under the same terms, the value for `Nc1nc(-c2ccc3c(c2)CCC(=O)N3)cs1` [CBK086133] was 80.8%; that for `O=S(=O)(NCc1ccccc1)c1ccc(Cl)cc1` [CBK086159] was 86.7%. On the same count and under the same terms, the value for `CCCc1cnc(N2CCN(CC(=O)Nc3ccc(C(C)=O)cc3)CC2)nc1` [CBK086194] was 104%. Take `COc1cc2c(cc1OC)C(C)N(C(=O)Nc1ccc3c(c1)OCCO3)CC2` (stereo not shown) [CBK086204]: the viability at 28.5 h, 10 µM was determined as 94.8%. With `CCNc1nc(=S)[nH]c2sc3c(c12)CCC(C)C3` (stereo not shown) [CBK086242], the viability at 28.5 h, 10 µM amounted to 89.2%. With `S=c1[nH]nc(-c2ccc(Cl)cc2)n1-c1cccnc1` [CBK086427], the viability at 28.5 h, 10 µM was found to be 83.6%. Same read-out and setting: the value for `CNC(=O)Nc1ccc(C(C)(C)C)cc1Br` [CBK086434] was 111%. On the same count and under the same terms, the value for `COc1ccccc1C1CCN(C(=O)c2ccc(C(C)(C)C)cc2)CC1` [CBK086469] was 84.3%; that for `O=C(O)/C=C/C(=O)Nc1ccccc1Br` [CBK086488] was 106%.

For the molecule `Cc1cc(COC(=O)Nc2ccc(Cl)cc2)no1` [CBK086560], the viability at 28.5 h, 10 µM is 93.4%. Still for that read-out and setting: the value for `CN(C)C(=O)CSc1cnc2ccccc2n1` [CBK086626] was 86.3%; that for `CCOC(=O)c1cnc2cc(C)ccn2c1=O` [CBK086650] was 93.1%; that for `COC(=O)C1CC(O)CN1S(=O)(=O)c1cccs1` (stereo not shown) [CBK086668] was 87%. Still for that read-out and setting: the value for `O=C1CC(c2ccccc2F)C2=C(COC2=O)N1` (stereo not shown) [CBK086692] was 92%; that for `CNS(=O)(=O)c1c(C)nn(-c2ccccc2)c1C` [CBK086715] was 102%. Take `CN(C(=O)c1ccccc1N)c1ccccc1` [CBK086716]: the viability at 28.5 h, 10 µM is 97.6%. The same measure, in the same setting: the value for `Cc1ccc(NC(=O)c2ccccc2)s1` [CBK086724] was 95.2%; that for `CCOC(=O)c1[nH]c2ccccc2c1NC(C)=O` [CBK086755] was 92.7%. With `O=C1c2ccccc2C(=O)N1CCc1c[nH]c2ccc(O)cc12` [CBK086794], the viability at 28.5 h, 10 µM was determined as 76%. Still for that read-out and setting: the value for `COc1ccc(C(=O)NC(N2CCCCC2)C(Cl)(Cl)Cl)cc1` (stereo not shown) [CBK087021] was 89.1%; that for `CN(Cc1ccccc1)C(C#N)c1c[nH]c2ccccc12` (stereo not shown) [CBK087062] was 95.3%.

(Values after article PMC12040169 (PLOS Biology, 2025).)
